For eleven compounds, DC50 and Dmax results are on record in US20260184710A1, “CASITAS B-LINEAGE LYMPHOMA PROTOONCOGENE B (CBL-B) DEGRADING COMPOUNDS AND ASSOCIATED METHODS OF USE” (Arvinas Operations, Inc., priority 2022, published 2026).

Experiment [1] has as its target T1, Cbl-b (Homo sapiens, UniProt Q13191).
T1 construct: Cbl-b-HiBit KI Jurkat Cells were purchased from Promega; host or cells: Cbl-b-HiBiT knock-in Jurkat cells
Description: Cbl-b Degradation Method A (FACS, anti-Cbl-b antibody staining). The class given is cell-based. The note with it: Cbl-b-HiBit KI Jurkat Cells, incubated at least 20 hours; half maximal degradation; read-out: Cbl-b Degredation Method A IC50. The procedure, abridged:
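Readout is flow cytometry of fixed, permeabilized cells immunostained for Cbl-b (primary 1:200, AF488 secondary). Cells were Cbl-b-HiBit knock-in Jurkat, exposed to compound ≥20 h at 37 °C; half-maximal degradation concentration (DC50) and maximal degradation (Dmax) calculated relative to control.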

In experiment [2] the target is T1, Cbl-b. The experiment in a line: Cbl-b Degradation Method B (Nano-Glo HiBiT lytic detection). It counts as cell-based. The note with it: Cbl-b-HiBit KI Jurkat Cells, incubated at least 6-24 hours; for DC50: half maximal degradation, read-out: Cbl-b Degredation Method B IC50. In short, it runs like this:
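An 11-point, 3-fold compound dilution was applied for 6-24 hours to Jurkat cells carrying HiBiT-tagged endogenous Cbl-b. Lytic HiBiT luminescence quantified residual protein. Outputs are DC50 and Dmax relative to DMSO control.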

T1 sequence (Q13191 whole entry): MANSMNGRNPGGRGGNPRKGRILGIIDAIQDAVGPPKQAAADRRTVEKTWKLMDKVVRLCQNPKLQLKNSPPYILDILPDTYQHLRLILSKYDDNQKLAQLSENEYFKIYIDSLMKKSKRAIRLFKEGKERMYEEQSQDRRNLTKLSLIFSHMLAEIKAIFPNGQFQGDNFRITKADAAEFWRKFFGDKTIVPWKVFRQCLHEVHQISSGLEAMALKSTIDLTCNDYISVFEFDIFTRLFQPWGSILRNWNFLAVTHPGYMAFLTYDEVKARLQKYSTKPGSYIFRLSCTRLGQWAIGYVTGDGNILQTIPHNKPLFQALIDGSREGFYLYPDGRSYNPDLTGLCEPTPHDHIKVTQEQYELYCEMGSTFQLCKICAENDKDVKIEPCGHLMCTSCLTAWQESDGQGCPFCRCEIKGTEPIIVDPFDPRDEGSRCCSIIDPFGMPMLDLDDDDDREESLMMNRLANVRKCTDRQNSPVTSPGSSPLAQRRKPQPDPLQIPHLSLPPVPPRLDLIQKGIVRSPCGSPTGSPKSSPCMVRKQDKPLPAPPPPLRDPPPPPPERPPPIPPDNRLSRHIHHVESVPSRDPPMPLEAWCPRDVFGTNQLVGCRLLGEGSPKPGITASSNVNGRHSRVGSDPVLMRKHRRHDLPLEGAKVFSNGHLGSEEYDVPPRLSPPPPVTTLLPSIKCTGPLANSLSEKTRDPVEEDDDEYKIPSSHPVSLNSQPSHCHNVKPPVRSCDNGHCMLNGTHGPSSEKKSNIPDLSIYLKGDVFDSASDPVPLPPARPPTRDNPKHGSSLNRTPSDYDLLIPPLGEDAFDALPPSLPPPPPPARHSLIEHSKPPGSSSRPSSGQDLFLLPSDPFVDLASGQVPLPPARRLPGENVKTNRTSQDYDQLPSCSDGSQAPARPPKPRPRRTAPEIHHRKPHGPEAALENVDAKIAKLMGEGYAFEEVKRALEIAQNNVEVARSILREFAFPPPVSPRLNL

Turning to `Cn1cnnc1CC1(c2cccc(N3Cc4c(cc(CN5CCCC(CN6CCN(c7ccc8c(c7)C(=O)N(C7CCC(=O)NC7=O)C8=O)CC6)C5)cc4C(F)(F)F)C3=O)c2)COC1` (centres unmarked) [Example 76, 2-(2,6-dioxopiperidin-3-yl)-5-{4-[(1-{[2-(3-{3-[(4-methyl-4H-1,2,4-triazol-3-yl)methyl]oxetan-3-yl}phenyl)-3-oxo-7-(trifluoromethyl)-2,3-dihydro-1H-isoindol-5-yl]methyl}piperidin-3-yl)methyl]piperazin-1-yl}-2,3-dihydro-1H-isoindole-1,3-dione], the DC50 in experiment [1] and in experiment [2] was greater than 500 nM throughout.
Consider `Cn1cnnc1CC1(c2cccc(N3Cc4c(cc(CN5CCC(CN6CCC(C7CCN(c8ccc9c(c8)C(=O)N(C8CCC(=O)NC8=O)C9=O)CC7)CC6)CC5)cc4C(F)(F)F)C3=O)c2)COC1` (centres unmarked) [Example 77, 2-(2,6-dioxopiperidin-3-yl)-5-{1′-[(1-{[2-(3-{3-[(4-methyl-4H-1,2,4-triazol-3-yl)methyl]oxetan-3-yl}phenyl)-3-oxo-7-(trifluoromethyl)-2,3-dihydro-1H-isoindol-5-yl]methyl}piperidin-4-yl)methyl]-[4,4′-bipiperidin]-1-yl}-2,3-dihydro-1H-isoindole-1,3-dione], for which the DC50 in experiment [1] and in experiment [2] was greater than 500 nM throughout.
As to `Cn1cnnc1CC1(c2cccc(N3Cc4c(cc(CN5CCC(CC6CN(c7ccc8c(c7)C(=O)N(C7CCC(=O)NC7=O)C8=O)C6)CC5)cc4C(F)(F)F)C3=O)c2)COC1` (centres unmarked) [Example 79, 2-(2,6-dioxopiperidin-3-yl)-5-{3-[(1-{[2-(3-{3-[(4-methyl-4H-1,2,4-triazol-3-yl)methyl]oxetan-3-yl}phenyl)-3-oxo-7-(trifluoromethyl)-2,3-dihydro-1H-isoindol-5-yl]methyl}piperidin-4-yl)methyl]azetidin-1-yl}-2,3-dihydro-1H-isoindole-1,3-dione], the DC50 in experiment [1] and in experiment [2] was greater than 500 nM throughout.
Regarding `Cn1cnnc1CC1(c2cccc(N3Cc4c(cc(CN5CCC(CN6CC7(CCN(c8ccc9c(c8)C(=O)N(C8CCC(=O)NC8=O)C9=O)CC7)C6)CC5)cc4C(F)(F)F)C3=O)c2)COC1` (centres unmarked) [Example 81, 2-(2,6-dioxopiperidin-3-yl)-5-{2-[(1-{[2-(3-{3-[(4-methyl-4H-1,2,4-triazol-3-yl)methyl]oxetan-3-yl}phenyl)-3-oxo-7-(trifluoromethyl)-2,3-dihydro-1H-isoindol-5-yl]methyl}piperidin-4-yl)methyl]-2,7-diazaspiro[3.5]nonan-7-yl}-2,3-dihydro-1H-isoindole-1,3-dione], the DC50 in experiment [1] and in experiment [2] was greater than 500 nM throughout.
With `Cn1cnnc1CC1(c2cccc(N3Cc4c(cc(CN5CCC(CN6CCC(c7ccc8c(c7)C(=O)N(C7CCC(=O)NC7=O)C8=O)CC6)CC5)cc4C(F)(F)F)C3=O)c2)COC1` (centres unmarked) [Example 82, 2-(2,6-dioxopiperidin-3-yl)-5-{1-[(1-{[2-(3-{3-[(4-methyl-4H-1,2,4-triazol-3-yl)methyl]oxetan-3-yl}phenyl)-3-oxo-7-(trifluoromethyl)-2,3-dihydro-1H-isoindol-5-yl]methyl}piperidin-4-yl)methyl]piperidin-4-yl}-2,3-dihydro-1H-isoindole-1,3-dione], the DC50 in experiment [1] and in experiment [2] was greater than 500 nM in each case.
In the case of `Cn1cnnc1CC1(c2cccc(N3Cc4c(cc(CN5CCC(CN6CC(C7CN(c8ccc9c(c8)C(=O)N(C8CCC(=O)NC8=O)C9=O)C7)C6)CC5)cc4C(F)(F)F)C3=O)c2)COC1` (centres unmarked) [Example 83, 2-(2,6-dioxopiperidin-3-yl)-5-{1′-[(1-{[2-(3-{3-[(4-methyl-4H-1,2,4-triazol-3-yl)methyl]oxetan-3-yl}phenyl)-3-oxo-7-(trifluoromethyl)-2,3-dihydro-1H-isoindol-5-yl]methyl}piperidin-4-yl)methyl]-[3,3′-biazetidin]-1-yl}-2,3-dihydro-1H-isoindole-1,3-dione], the DC50 in experiment [1] and in experiment [2] was greater than 500 nM in each case.
As for `Cn1cnnc1CC1(c2cccc(N3Cc4c(cc(CN5CCC(CN6CCC(COc7ccc8c(c7)C(=O)N(C7CCC(=O)NC7=O)C8=O)CC6)CC5)cc4C(F)(F)F)C3=O)c2)COC1` (centres unmarked) [Example 84, 2-(2,6-dioxopiperidin-3-yl)-5-({1-[(1-{[2-(3-{3-[(4-methyl-4H-1,2,4-triazol-3-yl)methyl]oxetan-3-yl}phenyl)-3-oxo-7-(trifluoromethyl)-2,3-dihydro-1H-isoindol-5-yl]methyl}piperidin-4-yl)methyl]piperidin-4-yl}methoxy)-2,3-dihydro-1H-isoindole-1,3-dione], the DC50 in experiment [1] and in experiment [2] was greater than 500 nM each time.
For `C[C@H]1C[C@@H](CN2CCN(c3ccc4c(c3)C(=O)N(C3CCC(=O)NC3=O)C4=O)CC2)CN(Cc2cc3c(c(C(F)(F)F)c2)CN(c2cccc(C4(Cc5nncn5C)COC4)c2)C3=O)C1` (stereo partly drawn) [Example 85, 2-(2,6-dioxopiperidin-3-yl)-5-(4-{[(3R,5S)-5-methyl-1-{[2-(3-{3-[(4-methyl-4H-1,2,4-triazol-3-yl)methyl]oxetan-3-yl}phenyl)-3-oxo-7-(trifluoromethyl)-2,3-dihydro-1H-isoindol-5-yl]methyl}piperidin-3-yl]methyl}piperazin-1-yl)-2,3-dihydro-1H-isoindole-1,3-dione], the DC50 in experiment [1] and in experiment [2] was 5 to 50 nM in each case. In addition, the Dmax in experiment [2] (maximum degradation observed, read-out: Cbl-b Degredation Method B Dmax (%)) is greater than 70%.
On to `C[C@@H]1C[C@@H](CN2CCN(c3ccc4c(c3)C(=O)N(C3CCC(=O)NC3=O)C4=O)CC2)CN(Cc2cc3c(c(C(F)(F)F)c2)CN(c2cccc(C4(Cc5nncn5C)COC4)c2)C3=O)C1` (stereo partly drawn) [Example 86, 2-(2,6-dioxopiperidin-3-yl)-5-(4-{[(3R,5R)-5-methyl-1-{[2-(3-{3-[(4-methyl-4H-1,2,4-triazol-3-yl)methyl]oxetan-3-yl}phenyl)-3-oxo-7-(trifluoromethyl)-2,3-dihydro-1H-isoindol-5-yl]methyl}piperidin-3-yl]methyl}piperazin-1-yl)-2,3-dihydro-1H-isoindole-1,3-dione], for which the DC50 in experiment [1] and in experiment [2] was greater than 500 nM each time.
With `Cn1cnnc1CC1(c2cccc(N3Cc4c(cc(CN5CCC(COCCOc6ccc7c(c6)C(=O)N(C6CCC(=O)NC6=O)C7=O)CC5)cc4C(F)(F)F)C3=O)c2)COC1` (centres unmarked) [Example 87, 2-(2,6-dioxopiperidin-3-yl)-5-(2-((1-((2-(3-(3-((4-methyl-4H-1,2,4-triazol-3-yl)methyl)oxetan-3-yl)phenyl)-3-oxo-7-(trifluoromethyl)isoindolin-5-yl)methyl)piperidin-4-yl)methoxy)ethoxy)isoindoline-1,3-dione], the DC50 in experiment [1] is 50 to 500 nM; in experiment [2], greater than 500 nM.
For the compound `Cn1cnnc1CC1(c2cccc(N3Cc4c(cc(CN5CCC(CN6CCN(c7cccc8c7C(=O)N(C7CCC(=O)NC7=O)C8=O)CC6)CC5)cc4C(F)(F)F)C3=O)c2)COC1` (centres unmarked) [Example 88, 2-(2,6-dioxopiperidin-3-yl)-4-(4-((1-((2-(3-(3-((4-methyl-4H-1,2,4-triazol-3-yl)methyl)oxetan-3-yl)phenyl)-3-oxo-7-(trifluoromethyl)isoindolin-5-yl)methyl)piperidin-4-yl)methyl)piperazin-1-yl)isoindoline-1,3-dione], the DC50 in experiment [1] and in experiment [2] was greater than 500 nM in each case.
